Values joined by “and” are separate entries in the source; they are usually repeats but may differ in a detail not shown here. Identical values can stand only once. Like-named read-outs stand apart in the source and are kept apart here.
Assays:
clinical = conditions: human, plasma
[1] = plasma, Cohort 1, CC-486 dose 200 mg oral, Cycle 1 Day 1, actual values (n=2)
[2] = plasma, Cohorts 2 and 3, CC-486 dose 300 mg oral, Cycle 1 Day 1, mean ± SD

| Cmax (clinical; iv, 8 mg/m2) | Tmax (clinical; iv, 8 mg/m2) | clearance (clinical; iv, 8 mg/m2) | difference in dose-normalized exposure, apparent clearance, apparent volume of distribution or half-life (200 or 300 mg CC-486) | AUCINF [1] | Cl/F [1] | V/F [1] | t1/2 [1] | Cl/F [2] | V/F [2] | Tmax (clinical; oral) | Cmax (clinical; po, 200 mg) | Tmax (clinical; po, 200 mg) | Cmax (clinical; po, 300 mg) | Tmax (clinical; po, 300 mg) | SMILES |
| --- | --- | --- | --- | --- | --- | --- | --- | --- | --- | --- | --- | --- | --- | --- | --- |
| 455 ± 255 ng/mL | 4 h | 178 mL/min |  |  |  |  |  |  |  |  |  |  |  |  | C/C=C1\NC(=O)[C@H]2CSSCC/C=C/[C@H](CC(=O)N[C@H](C(C)C)C(=O)N2)OC(=O)[C@H](C(C)C)NC1=O [romidepsin] |
|  |  |  | no difference | 538 ng·h/mL | 372 L/h and 373 L/h | 293 L and 319 L | 0.59 h | 922 ± 892 (10) L/h | 731 ± 557 (10) L | ~1 h | 324 ± 157 ng/mL | 1 h | 226 ± 130 ng/mL | 1.08 h | Nc1ncn([C@@H]2O[C@H](CO)[C@@H](O)[C@H]2O)c(=O)n1 [5-azacitidine] |
